# Data from ChEMBL document CHEMBL3885861, “Open TG-GATES”.
# Species on record: Rattus norvegicus
# Test: Open TG-GATES - Regimen: Single
# Assay type: toxicity, organism-based, Sprague-Dawley
# Set-up: regimen Single, gender Male, age 6 weeks
# Settings: in vivo, sc, 0 mg/kg, route subcutaneous injection, dose 0 ug/Kg, dose level Control; for APTT / Bas / Eos / Fbg / Hb / Ht / Lym / MCH / MCHC / MCV / Mono / Neu / PT / Plat / RBC / Ret / WBC: tissue Blood; for KIDNEY_L / KIDNEY_R / KIDNEY_TOTAL: tissue Kidney; for LIVER: tissue Liver; for A/G / ALP / ALT / AST / BUN / CRE / Ca / Cl / DBIL / GLC / IP / K / LDH / Na / PL / RALB / TBIL / TC / TG / TP / gamma-GTP: tissue Plasma
smiles,measurement,setting,value
CC(=O)O.N=C(N)NCCC[C@@H](NC(=O)[C@@H]1CCCN1C(=O)[C@@H]1CSSCCC(=O)N[C@@H](Cc2ccc(O)cc2)C(=O)N[C@@H](Cc2ccccc2)C(=O)N[C@@H](CCC(N)=O)C(=O)N[C@@H](CC(N)=O)C(=O)N1)C(=O)NCC(N)=O [DESMOPRESSIN ACETATE],TERMINAL_BW,3 h,211.5 g
same,APTT,3 h,16.1 s
same,Bas,3 h,0%
same,Eos,3 h,0.8%
same,Fbg,3 h,234.4 mg/dL
same,Hb,3 h,12.9 g/dL
same,Ht,3 h,39.7%
same,Lym,3 h,77.8%
same,MCH,3 h,21.7 pg
same,MCHC,3 h,32.5%
same,MCV,3 h,66.7 fL
same,Mono,3 h,5.8%
same,Neu,3 h,16%
same,PT,3 h,12.1 s
same,Plat,3 h,119.2 x10_4/uL
same,RBC,3 h,595 x10_4/ul
same,Ret,3 h,11.1%
same,WBC,3 h,80.6 x10_2/uL
same,KIDNEY_L,3 h,0.9 g
same,KIDNEY_R,3 h,1 g
same,KIDNEY_TOTAL,3 h,1.9 g
same,LIVER,3 h,10.2 g
same,A/G,3 h,2.1
same,ALP,3 h,1272 IU/L
same,ALT,3 h,37.8 IU/L
same,AST,3 h,66.8 IU/L
same,BUN,3 h,12.2 mg/dL
same,CRE,3 h,0.3 mg/dL
same,Ca,3 h,11.1 mg/dL
same,Cl,3 h,104.2 meq/L
same,DBIL,3 h,0.01 mg/dL
same,GLC,3 h,188.6 mg/dL
same,IP,3 h,9.2 mg/dL
same,K,3 h,4.8 meq/L
same,LDH,3 h,104 IU/L
same,Na,3 h,138.6 meq/L
same,PL,3 h,149.4 mg/dL
same,RALB,3 h,3.7 g/dL
same,TBIL,3 h,0.042 mg/dL
same,TC,3 h,82.6 mg/dL
same,TG,3 h,81.6 mg/dL
same,TP,3 h,5.5 g/dL
same,gamma-GTP,3 h,0.8 IU/L
same,TERMINAL_BW,6 h,204.5 g
same,APTT,6 h,18 s
same,Bas,6 h,0%
same,Eos,6 h,1.2%
same,Fbg,6 h,239 mg/dL
same,Hb,6 h,12.9 g/dL
same,Ht,6 h,39.7%
same,Lym,6 h,75.6%
same,MCH,6 h,21 pg
same,MCHC,6 h,32.5%
same,MCV,6 h,64.6 fL
same,Mono,6 h,8.6%
same,Neu,6 h,14.4%
same,PT,6 h,12.6 s
same,Plat,6 h,109.8 x10_4/uL
same,RBC,6 h,616 x10_4/ul
same,Ret,6 h,8.8%
same,WBC,6 h,104 x10_2/uL
same,KIDNEY_L,6 h,0.9 g
same,KIDNEY_R,6 h,0.9 g
same,KIDNEY_TOTAL,6 h,1.8 g
same,LIVER,6 h,9.2 g
same,A/G,6 h,2.1
same,ALP,6 h,1325 IU/L
same,ALT,6 h,32 IU/L
same,AST,6 h,62 IU/L
same,BUN,6 h,12 mg/dL
same,CRE,6 h,0.4 mg/dL
same,Ca,6 h,11.2 mg/dL
same,Cl,6 h,105.2 meq/L
same,DBIL,6 h,0.01 mg/dL
same,GLC,6 h,199.2 mg/dL
same,IP,6 h,10 mg/dL
same,K,6 h,5 meq/L
same,LDH,6 h,99.4 IU/L
same,Na,6 h,137.8 meq/L
same,PL,6 h,145.6 mg/dL
same,RALB,6 h,3.7 g/dL
same,TBIL,6 h,0.048 mg/dL
same,TC,6 h,85.2 mg/dL
same,TG,6 h,53.6 mg/dL
same,TP,6 h,5.5 g/dL
same,gamma-GTP,6 h,1 IU/L
same,TERMINAL_BW,9 h,199.2 g
same,APTT,9 h,16.6 s
same,Bas,9 h,0%
same,Eos,9 h,1.2%
same,Fbg,9 h,230.8 mg/dL
same,Hb,9 h,12.8 g/dL
same,Ht,9 h,39.7%
same,Lym,9 h,66.6%
same,MCH,9 h,21.2 pg
same,MCHC,9 h,32.2%
same,MCV,9 h,65.8 fL
same,Mono,9 h,14%
same,Neu,9 h,18.2%
same,PT,9 h,12.7 s
same,Plat,9 h,119.2 x10_4/uL
same,RBC,9 h,603.8 x10_4/ul
same,Ret,9 h,9.5%
same,WBC,9 h,99.4 x10_2/uL
same,KIDNEY_L,9 h,0.9 g
same,KIDNEY_R,9 h,0.9 g
same,KIDNEY_TOTAL,9 h,1.8 g
same,LIVER,9 h,8.5 g
same,A/G,9 h,2.1
same,ALP,9 h,1072.6 IU/L
same,ALT,9 h,31 IU/L
same,AST,9 h,62.2 IU/L
same,BUN,9 h,11.6 mg/dL
same,CRE,9 h,0.3 mg/dL
same,Ca,9 h,10.8 mg/dL
same,Cl,9 h,105.8 meq/L
same,DBIL,9 h,0.012 mg/dL
same,GLC,9 h,189.6 mg/dL
same,IP,9 h,10.8 mg/dL
same,K,9 h,5 meq/L
same,LDH,9 h,88.8 IU/L
same,Na,9 h,138.2 meq/L
same,PL,9 h,140 mg/dL
same,RALB,9 h,3.6 g/dL
same,TBIL,9 h,0.046 mg/dL
same,TC,9 h,82.2 mg/dL
same,TG,9 h,52.4 mg/dL
same,TP,9 h,5.3 g/dL
same,gamma-GTP,9 h,0.6 IU/L
same,TERMINAL_BW,24 h,222.1 g
same,APTT,24 h,16.1 s
same,Bas,24 h,0%
same,Eos,24 h,1%
same,Fbg,24 h,241.7 mg/dL
same,Hb,24 h,12.7 g/dL
same,Ht,24 h,39.6%
same,Lym,24 h,75%
same,MCH,24 h,21.3 pg
same,MCHC,24 h,32.2%
same,MCV,24 h,66 fL
same,Mono,24 h,7.8%
same,Neu,24 h,16.2%
same,PT,24 h,12.1 s
same,Plat,24 h,118 x10_4/uL
same,RBC,24 h,599.6 x10_4/ul
same,Ret,24 h,9.9%
same,WBC,24 h,86.4 x10_2/uL
same,KIDNEY_L,24 h,0.9 g
same,KIDNEY_R,24 h,1 g
same,KIDNEY_TOTAL,24 h,1.9 g
same,LIVER,24 h,10.6 g
same,A/G,24 h,2
same,ALP,24 h,1741.4 IU/L
same,ALT,24 h,35.8 IU/L
same,AST,24 h,65.2 IU/L
same,BUN,24 h,16.4 mg/dL
same,CRE,24 h,0.4 mg/dL
same,Ca,24 h,11.2 mg/dL
same,Cl,24 h,104.6 meq/L
same,DBIL,24 h,0 mg/dL
same,GLC,24 h,192.4 mg/dL
same,IP,24 h,8.4 mg/dL
same,K,24 h,5.3 meq/L
same,LDH,24 h,138.4 IU/L
same,Na,24 h,138.6 meq/L
same,PL,24 h,156.2 mg/dL
same,RALB,24 h,3.7 g/dL
same,TBIL,24 h,0.016 mg/dL
same,TC,24 h,82.2 mg/dL
same,TG,24 h,125.2 mg/dL
same,TP,24 h,5.5 g/dL
same,gamma-GTP,24 h,1.2 IU/L
